Data reported in patent US20240307382A1, “MODULATORS OF THE INTEGRATED STRESS PATHWAY” (Calico Life Sciences LLC, priority 2017, published 2024).

Test system: HEK293T cells carrying the ATF4 luciferase reporter
Test: ATF4-Luc assay (ATF4 luciferase reporter, tunicamycin-treated cells)
Assay type: cell-based
Settings: Homo sapiens, HEK-293T, 1 μg/mL tunicamycin, 7 hours
Outline: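 A stable HEK293T reporter line was made by placing the full-length human ATF4 5′-UTR ahead of a firefly luciferase sequence without its start methionine, delivered by retroviral transduction and puromycin selection. Cells were seeded at 30,000 per well in polylysine-coated 384-well plates, exposed next day to 1 μg/mL tunicamycin plus compound for 7 hours, and luminescence was read with One Glo.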

Compound | EC50 [nM]
Cc1cnc(C(=O)NC23CC(NC(=O)c4cnc(-c5ccccc5)o4)(C2)C3)cn1 [Compound 1056, 5-methyl-N-{3-[(2-phenyl-1,3-oxazole-5-carbonyl)amino]bicyclo[1.1.1]pentan-1-yl}pyrazine-2-carboxamide] | 250 to 1000
O=C(NC12CC(NC(=O)c3cnc(-c4ccccc4)o3)(C1)C2)c1cnc(-c2ccccc2)o1 [Compound 1057, N,N′-(bicyclo[1.1.1]pentane-1,3-diyl)bis(2-phenyl-1,3-oxazole-5-carboxamide)] | < 50
O=C(NC12CC(NC(=O)c3cnc(-c4ccccc4)o3)(C1)C2)c1cnc(C(F)F)cn1 [Compound 1058, 5-(difluoromethyl)-N-{3-[(2-phenyl-1,3-oxazole-5-carbonyl)amino]bicyclo[1.1.1]pentan-1-yl}pyrazine-2-carboxamide] | 50 to 250
O=C(CO)Nc1cc(F)c(F)cc1C(=O)NC12CC(NC(=O)COc3ccc(Cl)c(F)c3)(C1)C2 [Compound 1059, N-{3-[2-(4-chloro-3-fluorophenoxy)acetamido]bicyclo[1.1.1]pentan-1-yl}-4,5-difluoro-2-(2-hydroxyacetamido)benzamide] | 50 to 250
O=C(COc1ccc(Cl)c(F)c1)NC12CC(NC(=O)c3cc(F)c(F)cc3NCCO)(C1)C2 [Compound 1060, N-{3-[2-(4-chloro-3-fluorophenoxy)acetamido]bicyclo[1.1.1]pentan-1-yl}-4,5-difluoro-2-[(2-hydroxyethyl)amino]benzamide] | 250 to 1000
COCC(=O)Nc1cc(F)c(F)cc1C(=O)NC12CC(NC(=O)COc3ccc(Cl)c(F)c3)(C1)C2 [Compound 1061, N-{3-[2-(4-chloro-3-fluorophenoxy)acetamido]bicyclo[1.1.1]pentan-1-yl}-4,5-difluoro-2-(2-methoxyacetamido)benzamide] | 250 to 1000
Cc1nc(C(=O)NC23CCC(NC(=O)COc4ccc(Cl)c(F)c4)(CC2)[C@H](O)C3)n[nH]1 [Compound 1062, N-{(3R)-4-[2-(4-chloro-3-fluorophenoxy)acetamido]-3-hydroxybicyclo[2.2.2]octan-1-yl}-5-methyl-1H-1,2,4-triazole-3-carboxamide] | 250 to 1000
Cc1csc(C(=O)NC23CCC(NC(=O)COc4ccc(F)c(Cl)c4)(CC2)[C@@H](O)C3)n1 [Compound 1063, N-{(3S)-4-[2-(3-chloro-4-fluorophenoxy)acetamido]-3-hydroxybicyclo[2.2.2]octan-1-yl}-4-methyl-1,3-thiazole-2-carboxamide] | 250 to 1000
Cc1csc(C(=O)NC23CCC(NC(=O)COc4ccc(Cl)cc4)(CC2)[C@@H](O)C3)n1 [Compound 1064, N-{(3S)-4-[2-(4-chlorophenoxy)acetamido]-3-hydroxybicyclo[2.2.2]octan-1-yl}-4-methyl-1,3-thiazole-2-carboxamide] | 250 to 1000
Cc1csc(C(=O)NC23CCC(NC(=O)COc4ccc(Cl)c(F)c4)(CC2)[C@@H](O)C3)n1 [Compound 1065, N-{(3S)-4-[2-(4-chloro-3-fluorophenoxy)acetamido]-3-hydroxybicyclo[2.2.2]octan-1-yl}-4-methyl-1,3-thiazole-2-carboxamide] | < 50
O=C(COc1ccc(Cl)c(F)c1)NC12CCC(NC(=O)c3ccn(-c4ccc(Cl)c(Cl)c4)n3)(CC1)[C@@H](O)C2 [Compound 1066, N-{(2S)-4-[2-(4-chloro-3-fluorophenoxy)acetamido]-2-hydroxybicyclo[2.2.2]octan-1-yl}-1-(3,4-dichlorophenyl)-1H-pyrazole-3-carboxamide] | < 50
Cc1nc(C(=O)NC23CC(NC(=O)COc4ccc(Cl)c(F)c4)(C2)C3)n(C)n1 [Compound 1067, N-{3-[2-(4-chloro-3-fluorophenoxy)acetamido]bicyclo[1.1.1]pentan-1-yl}-1,3-dimethyl-1H-1,2,4-triazole-5-carboxamide] | 50 to 250
O=C(COc1ccc(Cl)c(F)c1)NC12CCC(NC(=O)c3n[nH]c(-c4ccc(Cl)cc4)n3)(CC1)C[C@@H]2O [Compound 1068, N-{(3S)-4-[2-(4-chloro-3-fluorophenoxy)acetamido]-3-hydroxybicyclo[2.2.2]octan-1-yl}-5-(4-chlorophenyl)-1H-1,2,4-triazole-3-carboxamide] | > 2000
COc1ncc(OCC(=O)NC23CCC(NC(=O)c4cc(C(F)F)no4)(CC2)C[C@@H]3O)cn1 [Compound 1069, 3-(difluoromethyl)-N-[(3S)-3-hydroxy-4-{2-[(2-methoxypyrimidin-5-yl)oxy]acetamido}bicyclo[2.2.2]octan-1-yl]-1,2-oxazole-5-carboxamide] | 1000 to 2000
O=C(COc1cccc(F)c1)NC12CCC(NC(=O)c3cc(C(F)F)no3)(CC1)C[C@@H]2O [Compound 1070, 3-(difluoromethyl)-N-{(3S)-4-[2-(3-fluorophenoxy)acetamido]-3-hydroxybicyclo[2.2.2]octan-1-yl}-1,2-oxazole-5-carboxamide] | 50 to 250
O=C(COc1ccccn1)NC12CCC(NC(=O)c3cc(C(F)F)no3)(CC1)C[C@@H]2O [Compound 1071, 3-(difluoromethyl)-N-[(3S)-3-hydroxy-4-{2-[(pyridin-2-yl)oxy]acetamido}bicyclo[2.2.2]octan-1-yl]-1,2-oxazole-5-carboxamide] | > 2000
O=C(COc1cccc(Cl)c1)NC12CCC(NC(=O)c3cc(C(F)F)no3)(CC1)C[C@@H]2O [Compound 1072, N-{(3S)-4-[2-(3-chlorophenoxy)acetamido]-3-hydroxybicyclo[2.2.2]octan-1-yl}-3-(difluoromethyl)-1,2-oxazole-5-carboxamide] | 50 to 250
COc1ncc(C(=O)NC23CCC(NC(=O)COc4ccc(Cl)c(F)c4)(CC2)[C@@H](O)C3)cn1 [Compound 1073, N-{(3S)-4-[2-(4-chloro-3-fluorophenoxy)acetamido]-3-hydroxybicyclo[2.2.2]octan-1-yl}-2-methoxypyrimidine-5-carboxamide] | 50 to 250
COc1ncc(C(=O)NC23CCC(NC(=O)COc4ccc(C(F)(F)F)c(F)c4)(CC2)[C@@H](O)C3)cn1 [Compound 1074, N-[(3S)-4-{2-[3-fluoro-4-(trifluoromethyl)phenoxy]acetamido}-3-hydroxybicyclo[2.2.2]octan-1-yl]-2-methoxypyrimidine-5-carboxamide] | 50 to 250
O=C(COc1ccc(Cl)c(F)c1)NC12CCC(NC(=O)c3nc4cc(F)c(F)cc4o3)(CC1)C[C@@H]2O [Compound 1075, N-{(3S)-4-[2-(4-chloro-3-fluorophenoxy)acetamido]-3-hydroxybicyclo[2.2.2]octan-1-yl}-5,6-difluoro-1,3-benzoxazole-2-carboxamide] | < 50
O=C(COc1ccc(C(F)(F)F)nc1)NC12CCC(NC(=O)c3cc4cc(Cl)ccc4o3)(CC1)C[C@@H]2O [Compound 1076, 5-chloro-N-[(3S)-3-hydroxy-4-(2-{[6-(trifluoromethyl)pyridin-3-yl]oxy}acetamido)bicyclo[2.2.2]octan-1-yl]-1-benzofuran-2-carboxamide] | 50 to 250
O=C(COc1ccc(Cl)c(F)c1)NC12CCC(NC(=O)c3cc4cc(Cl)ccc4o3)(CC1)C[C@@H]2O [Compound 1077, 5-chloro-N-{(3S)-4-[2-(4-chloro-3-fluorophenoxy)acetamido]-3-hydroxybicyclo[2.2.2]octan-1-yl}-1-benzofuran-2-carboxamide] | < 50
O=C(CCOc1ccc(Cl)c(F)c1)NC12CCC(NC(=O)c3cc(C(F)F)no3)(CC1)C[C@@H]2O [Compound 1078, N-{(3S)-4-[3-(4-chloro-3-fluorophenoxy)propanamido]-3-hydroxybicyclo[2.2.2]octan-1-yl}-3-(difluoromethyl)-1,2-oxazole-5-carboxamide] | 250 to 1000
O=C(CCOc1ccc(Cl)c(F)c1)NC12CC(NC(=O)c3ccc(OC(F)(F)F)cn3)(C1)C2 [Compound 1079, N-{3-[3-(4-chloro-3-fluorophenoxy)propanamido]bicyclo[1.1.1]pentan-1-yl}-5-(trifluoromethoxy)pyridine-2-carboxamide] | > 2000
O=C(COc1cc(F)c2cn[nH]c2c1)NC12CCC(NC(=O)c3cnc(C(F)F)cn3)(CC1)[C@@H](O)C2 [Compound 1080, 5-(difluoromethyl)-N-[(2S)-4-{2-[(4-fluoro-1H-indazol-6-yl)oxy]acetamido}-2-hydroxybicyclo[2.2.2]octan-1-yl]pyrazine-2-carboxamide] | 50 to 250
Cc1onc(C(=O)NC23CC(NC(=O)COc4ccc(Cl)c(F)c4)(C2)C3)c1C(=O)Nc1ncc(C(F)(F)F)cc1Cl [Compound 1081, N^3-{3-[2-(4-chloro-3-fluorophenoxy)acetamido]bicyclo[1.1.1]pentan-1-yl}-N^4-[3-chloro-5-(trifluoromethyl)pyridin-2-yl]-5-methyl-1,2-oxazole-3,4-dicarboxamide] | > 2000
O=C(COc1ccc(Cl)c(F)c1)NC12CCC(NC(=O)c3ccc4c(n3)CCCC4)(CC1)[C@@H](O)C2 [Compound 1082, N-{(2S)-4-[2-(4-chloro-3-fluorophenoxy)acetamido]-2-hydroxybicyclo[2.2.2]octan-1-yl}-5,6,7,8-tetrahydroquinoline-2-carboxamide] | < 50
O=C(COc1ccc(OC(F)(F)F)cc1)NC12CCC(NC(=O)c3ccc(Cl)c(F)c3)(CC1)[C@@H](O)C2 [Compound 1083, 4-chloro-3-fluoro-N-[(2S)-2-hydroxy-4-{2-[4-(trifluoromethoxy)phenoxy]acetamido}bicyclo[2.2.2]octan-1-yl]benzamide] | > 2000
O=C(COc1ccc(Cl)c(F)c1)NC12CC(NC(=O)c3cncc(CO)n3)(C1)C2 [Compound 1084, N-{3-[2-(4-chloro-3-fluorophenoxy)acetamido]bicyclo[1.1.1]pentan-1-yl}-6-(hydroxymethyl)pyrazine-2-carboxamide] | 1000 to 2000
O=C(COc1ccc(Cl)c(F)c1)NC12CC(NC(=O)c3cc(F)cc4c3OCOC4)(C1)C2 [Compound 1085, N-{3-[2-(4-chloro-3-fluorophenoxy)acetamido]bicyclo[1.1.1]pentan-1-yl}-6-fluoro-2H,4H-1,3-benzodioxine-8-carboxamide] | 1000 to 2000
